pEC50, pIC50: −log10 of the molar value.
Key:
[1] = target: purified recombinant human GAC (GLS1) (Homo sapiens (Human), UniProt O94925); test: GLS1 Enzymatic Activity Assay (dual-coupled enzymatic assay, resorufin/Amplex UltraRed readout); assay type: biochemical;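 also: glutamate from GAC coupled via glutamate oxidase and peroxidase to resorufin, read as fluorescence (ex 530, em 590 nm) kinetically or at 20 min, four-parameter logistic IC50 fit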
[2] = tested on: A549 cells; test: Proliferation Assay (A549 viability, Cell Titer Fluor, 72 hours); assay type: cell-based; conditions: Homo sapiens, A549, 72 h
Experimental: A549 cells were routinely maintained in RPMI 1640 media (Gibco catalog number 11875-093) supplemented with 10% dialyzed fetal bovine serum using a humidified incubator (37° C., 5% CO2 and ambient O2). In preparation for the viability assay, cells were inoculated into 384-well black CulturPlates (Perkin Elmer) at a density of 1000 cells/well in a volume of 40 uL. Following a 24-hour incubation at 37° C., 5% CO2 and ambient O2, cells were treated with compound (10 uL) in a final DMSO concentration of 0.5% (v/v). The microplates were then incubated for 72 hours (37° C., 5% CO2 and ambient O2). Cell Titer Fluor (Promega) was subsequently added (10 uL of 6× reagent) and mixed for 15 minutes at room temperature. The plates were then incubated for 30 minutes (37° C., 5% CO2 and ambient O2) and fluorescence was subsequently read on the Perkin Elmer Envision plate reader. IC50 values were calculated using a four-parameter logistic curve fit.
Non-limiting examples include the following compounds and pharmaceutically acceptable salts thereof. […] “ND” indicates no data.

purified recombinant human GAC (GLS1), sequence (O94925 other isoform, or with tags, fused parts or gaps): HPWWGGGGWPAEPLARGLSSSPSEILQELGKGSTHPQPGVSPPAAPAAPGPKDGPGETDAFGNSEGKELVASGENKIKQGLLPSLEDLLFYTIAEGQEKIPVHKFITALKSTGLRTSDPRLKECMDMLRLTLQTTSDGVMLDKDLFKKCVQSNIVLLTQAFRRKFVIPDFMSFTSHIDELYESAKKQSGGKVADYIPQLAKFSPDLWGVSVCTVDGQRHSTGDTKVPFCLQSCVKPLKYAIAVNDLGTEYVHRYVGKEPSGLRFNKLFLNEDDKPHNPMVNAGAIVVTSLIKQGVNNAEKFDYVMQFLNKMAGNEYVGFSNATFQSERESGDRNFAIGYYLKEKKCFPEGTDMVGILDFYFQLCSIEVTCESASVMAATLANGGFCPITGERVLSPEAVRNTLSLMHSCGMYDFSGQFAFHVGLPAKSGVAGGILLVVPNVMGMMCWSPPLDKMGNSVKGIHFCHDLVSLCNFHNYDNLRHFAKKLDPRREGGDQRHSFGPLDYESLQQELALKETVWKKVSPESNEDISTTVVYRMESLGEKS

Cc1ccc(CNC(=O)c2cn(CCC(F)Cn3cc(C(=O)NCc4cccc(OC(F)(F)F)c4)nn3)nn2)cn1 (stereo not drawn) [Example 434, 1-[2-fluoro-4-(4-{[(6-methylpyridin-3-yl)methyl]carbamoyl}-1H-1,2,3-triazol-1-yl)butyl]-N-{[3-(trifluoromethoxy)phenyl]methyl}-1H-1,2,3-triazole-4-carboxamide]
pIC50 [1]: > 7.00 | pEC50 [2]: > 7.00

O=C(Cc1cccc(OC(F)(F)F)c1)Nc1nnc(CCCCn2cc(C(=O)NCCO)nn2)s1 [Example 17, N-(2-hydroxyethyl)-1-[4-(5-{2-[3-(trifluoromethoxy)phenyl]acetamido}-1,3,4-thiadiazol-2-yl)butyl]-1H-1,2,3-triazole-4-carboxamide]
pIC50 [1]: 6.30 to 7.00 | pEC50 [2]: 6.30 to 7.00

O=C(CC1CCCC1)Nc1cn(CCCCn2cc(C(=O)NCc3ccccn3)nn2)nn1 [Example 277, 1-{4-[4-(2-cyclopentylacetamido)-1H-1,2,3-triazol-1-yl]butyl}-N-(pyridin-2-ylmethyl)-1H-1,2,3-triazole-4-carboxamide]
pIC50 [1]: 6.30 to 7.00 | pEC50 [2]: 5.30 to 6.30

O=C(Cc1cccc(OC(F)(F)F)c1)Nc1cn(CCCCn2cc(C(=O)NCc3cccnc3)nn2)nn1 [Example 307, N-(pyridin-3-ylmethyl)-1-[4-(4-{2-[3-(trifluoromethoxy)phenyl]acetamido}-1H-1,2,3-triazol-1-yl)butyl]-1H-1,2,3-triazole-4-carboxamide]
pIC50 [1]: > 7.00 | pEC50 [2]: 6.30 to 7.00

N#CCNC(=O)c1cn(CCC(F)Cn2cc(C(=O)NCc3cc(OC(F)(F)F)ccc3F)nn2)nn1 (stereo not drawn) [Example 168, N-(cyanomethyl)-1-{3-fluoro-4-[4-({[2-fluoro-5-(trifluoromethoxy)phenyl]methyl}carbamoyl)-1H-1,2,3-triazol-1-yl]butyl}-1H-1,2,3-triazole-4-carboxamide]
pIC50 [1]: > 7.00 | pEC50 [2]: 6.30 to 7.00

O=C(NCc1ccc(C(F)(F)F)cn1)c1cn(CCC(F)Cn2cc(C(=O)NCc3cc(C(F)(F)F)ccn3)nn2)nn1 (stereo not drawn) [Example 156, 1-{2-fluoro-4-[4-({[5-(trifluoromethyl)pyridin-2-yl]methyl}carbamoyl)-1H-1,2,3-triazol-1-yl]butyl}-N-{[4-(trifluoromethyl)pyridin-2-yl]methyl}-1H-1,2,3-triazole-4-carboxamide]
pIC50 [1]: > 7.00 | pEC50 [2]: > 7.00

O=C(NCc1cccc(C(F)(F)F)c1)c1cn(CC(F)CCc2nnc(C(=O)NCc3cncc(C(F)(F)F)c3)s2)nn1 (stereo not drawn) [Example 484, 5-{3-fluoro-4-[4-({[3-(trifluoromethyl)phenyl]methyl}carbamoyl)-1H-1,2,3-triazol-1-yl]butyl}-N-{[5-(trifluoromethyl)pyridin-3-yl]methyl}-1,3,4-thiadiazole-2-carboxamide]
pIC50 [1]: > 7.00 | pEC50 [2]: > 7.00

CNC(=O)c1cn(CCC(F)Cn2cc(C(=O)NCc3cncc(C(F)(F)F)c3)nn2)nn1 (stereo not drawn) [Example 151, 1-{3-fluoro-4-[4-({[5-(trifluoromethyl)pyridin-3-1-yl]methyl}carbamoyl)-1H-1,2,3-triazol-1-yl]butyl}-N-methyl-1H-1,2,3-triazole-4-carboxamide]
pIC50 [1]: 6.30 to 7.00 | pEC50 [2]: 5.30 to 6.30

Cc1ccc(CNC(=O)c2cn(CCC(F)Cn3cc(NC(=O)Cc4ccc(C)nc4)nn3)nn2)cn1 (stereo not drawn) [Example 346, 1-(3-fluoro-4-{4-[2-(6-methylpyridin-3-yl)acetamido]-1H-1,2,3-triazol-1-yl}butyl)-N-[(6-methylpyridin-3-yl)methyl]-1H-1,2,3-triazole-4-carboxamide]
pIC50 [1]: > 7.00 | pEC50 [2]: 5.30 to 6.30

O=C(NCc1cncc(C(F)(F)F)c1)c1cn(CC(F)CCc2nnc(C(=O)NCc3ccc(C(F)(F)F)cn3)s2)nn1 (stereo not drawn) [Example 488, 5-{3-fluoro-4-[4-({[5-(trifluoromethyl)pyridin-3-yl]methyl}carbamoyl)-1H-1,2,3-triazol-1-yl]butyl}-N-{[5-(trifluoromethyl)pyridin-2-yl]methyl}-1,3,4-thiadiazole-2-carboxamide]
pIC50 [1]: > 7.00 | pEC50 [2]: > 7.00

CNC(=O)c1cn(CC(F)CCc2ccc(NC(=O)Cc3cc(C(F)(F)F)ccn3)nn2)nn1 (stereo not drawn) [Example 248, 1-(2-fluoro-4-(6-(2-(4-(trifluoromethyl)pyridin-2-yl)acetamido)pyridazin-3-yl)butyl)-N-methyl-1H-1,2,3-triazole-4-carboxamide]
pEC50 [2]: > 7.00

CNC(=O)c1cn(CCCCc2ccc(NC(=O)Cc3cc(C4CC4)ccn3)nn2)nn1 [Example 190, 1-(4-{6-[2-(4-cyclopropylpyridin-2-yl)acetamido]pyridazin-3-yl}butyl)-N-methyl-1H-1,2,3-triazole-4-carboxamide]
pEC50 [2]: 6.30 to 7.00

CNC(=O)c1cn(CCCCc2ccc(NC(=O)Cc3cc(OC4CC(F)(F)C4)ccn3)nn2)nn1 [Example 261, 1-(4-(6-(2-(4-(3,3-difluorocyclobutoxy)pyridin-2-yl)acetamido)pyridazin-3-yl)butyl)-N-methyl-1H-1,2,3-triazole-4-carboxamide]
pEC50 [2]: > 7.00

CNC(=O)c1cn(CCCCc2ccc(NC(=O)Cc3ccccn3)nn2)nn1 [Example 167, N-methyl-1-(4-{6-[2-(pyridin-2-yl)acetamido]pyridazin-3-yl}butyl)-1H-1,2,3-triazole-4-carboxamide]
pEC50 [2]: 6.30 to 7.00

CNC(=O)c1cn(CCCCc2ccc(NC(=O)Cc3cncc(OC4CC(F)(F)C4)c3)nn2)nn1 [Example 202, 1-(4-(6-(2-(5-(3,3-difluorocyclobutoxy)pyridin-3-yl)acetamido)pyridazin-3-yl)butyl)-N-methyl-1H-1,2,3-triazole-4-carboxamide]
pEC50 [2]: 6.30 to 7.00

O=C(Cc1cncc(OC2CC(F)(F)C2)c1)Nc1ccc(CCCCn2cc(C(=O)NCc3cc(C(F)(F)F)ccn3)nn2)nn1 [Example 230, 1-(4-(6-(2-(5-(3,3-difluorocyclobutoxy)pyridin-3-yl)acetamido)pyridazin-3-yl)butyl)-N-((4-(trifluoromethyl)pyridin-2-yl)methyl)-1H-1,2,3-triazole-4-carboxamide]
pEC50 [2]: > 7.00

CNC(=O)c1cn(CC(F)CCc2ccc(NC(=O)Cc3cc(OC4CC(F)(F)C4)ccn3)nn2)nn1 (stereo not drawn) [Example 252, 1-(4-(6-(2-(4-(3,3-difluorocyclobutoxy)pyridin-2-yl)acetamido)pyridazin-3-yl)-2-fluorobutyl)-N-methyl-1H-1,2,3-triazole-4-carboxamide]
pEC50 [2]: > 7.00

CNC(=O)c1cn(CCCCc2ccc(NC(=O)Cc3cc(-c4cccc(OC(F)(F)F)c4F)ccn3)nn2)nn1 [Example 607, 1-(4-(6-(2-(4-(2-fluoro-3-(trifluoromethoxy)phenyl)pyridin-2-yl)acetamido)pyridazin-3-yl)butyl)-N-methyl-1H-1,2,3-triazole-4-carboxamide]
pEC50 [2]: > 7.00

CNC(=O)c1cn(C[C@H](F)CCc2ccc(NC(=O)Cc3ccccn3)nn2)nn1 [Example 254, (R)-1-(2-fluoro-4-(6-(2-(pyridin-2-yl)acetamido)pyridazin-3-yl)butyl)-N-methyl-1H-1,2,3-triazole-4-carboxamide]
pEC50 [2]: 6.30 to 7.00

CNC(=O)c1cn(CCCCc2ccc(NC(=O)Cc3ccc(Cl)nc3)nn2)nn1 [Example 544, 1-(4-{6-[2-(6-chloropyridin-3-yl)acetamido]pyridazin-3-yl}butyl)-N-methyl-1H-1,2,3-triazole-4-carboxamide]
pEC50 [2]: 6.30 to 7.00

CC(C)NC(=O)c1nnc(CCCCn2cc(C(=O)NCc3cccc(OC(F)(F)F)c3)nn2)s1 [Example 43, N-(propan-2-yl)-5-{4-[4-({[3-(trifluoromethoxy)phenyl]methyl}carbamoyl)-1H-1,2,3-triazol-1-yl]butyl}-1,3,4-thiadiazole-2-carboxamide]
pEC50 [2]: 6.30 to 7.00

CC(C)NC(=O)c1cn(CCCCc2ccc(NC(=O)Cc3cccc(OC(F)(F)F)c3)nn2)nn1 [Example 526, N-(propan-2-yl)-1-[4-(6-{2-[3-(trifluoromethoxy)phenyl]acetamido}pyridazin-3-yl)butyl]-1H-1,2,3-triazole-4-carboxamide]
pEC50 [2]: 5.30 to 6.30

COc1cncc(CNC(=O)c2cn(CC(F)CCc3nnc(NC(=O)Cc4cccc(OC(F)(F)F)c4)s3)nn2)c1 (stereo not drawn) [Example 222, 1-(2-fluoro-4-(5-(2-(3-(trifluoromethoxy)phenyl)acetamido)-1,3,4-thiadiazol-2-yl)butyl)-N-((5-methoxypyridin-3-yl)methyl)-1H-1,2,3-triazole-4-carboxamide]
pEC50 [2]: > 7.00

CNC(=O)c1cn(CCCCc2ccc(NC(=O)Cc3cccc(OC(F)(F)F)c3)nn2)nn1 [Example 157, N-methyl-1-(4-(6-(2-(3-(trifluoromethoxy)phenyl)acetamido)pyridazin-3-yl)butyl)-1H-1,2,3-triazole-4-carboxamide]
pEC50 [2]: 6.30 to 7.00

CNC(=O)c1cn(CCCCc2ccc(NC(=O)Cc3cc(-c4cccc(Cl)c4OC(F)(F)F)ccn3)nn2)nn1 [Example 608, 1-(4-(6-(2-(4-(3-chloro-2-(trifluoromethoxy)phenyl)pyridin-2-yl)acetamido)pyridazin-3-yl)butyl)-N-methyl-1H-1,2,3-triazole-4-carboxamide]
pEC50 [2]: > 7.00

CNC(=O)c1cn(C[C@H](F)CCc2ccc(NC(=O)Cc3cc(-c4cccc(OC(F)(F)F)c4)ccn3)nn2)nn1 [Example 255, (R)-1-(2-fluoro-4-(6-(2-(4-(3-(trifluoromethoxy)phenyl)pyridin-2-yl)acetamido)pyridazin-3-yl)butyl)-N-methyl-1H-1,2,3-triazole-4-carboxamide]
pEC50 [2]: > 7.00
